Measurements from US20240132467A1, “BENZIMIDAZOLE DERIVATIVES FOR TREATING RESPIRATORY DISEASE” (TMEM16A Limited, priority 2020, published 2024).

Biological target: T1, human TMEM16A (TMEM16Aabc variant) (Homo sapiens, UniProt Q5XXA6, DEL476-501)
T1 sequence (Q5XXA6 with tags, fused parts or gaps isoform Q5XXA6-5 DEL539-564): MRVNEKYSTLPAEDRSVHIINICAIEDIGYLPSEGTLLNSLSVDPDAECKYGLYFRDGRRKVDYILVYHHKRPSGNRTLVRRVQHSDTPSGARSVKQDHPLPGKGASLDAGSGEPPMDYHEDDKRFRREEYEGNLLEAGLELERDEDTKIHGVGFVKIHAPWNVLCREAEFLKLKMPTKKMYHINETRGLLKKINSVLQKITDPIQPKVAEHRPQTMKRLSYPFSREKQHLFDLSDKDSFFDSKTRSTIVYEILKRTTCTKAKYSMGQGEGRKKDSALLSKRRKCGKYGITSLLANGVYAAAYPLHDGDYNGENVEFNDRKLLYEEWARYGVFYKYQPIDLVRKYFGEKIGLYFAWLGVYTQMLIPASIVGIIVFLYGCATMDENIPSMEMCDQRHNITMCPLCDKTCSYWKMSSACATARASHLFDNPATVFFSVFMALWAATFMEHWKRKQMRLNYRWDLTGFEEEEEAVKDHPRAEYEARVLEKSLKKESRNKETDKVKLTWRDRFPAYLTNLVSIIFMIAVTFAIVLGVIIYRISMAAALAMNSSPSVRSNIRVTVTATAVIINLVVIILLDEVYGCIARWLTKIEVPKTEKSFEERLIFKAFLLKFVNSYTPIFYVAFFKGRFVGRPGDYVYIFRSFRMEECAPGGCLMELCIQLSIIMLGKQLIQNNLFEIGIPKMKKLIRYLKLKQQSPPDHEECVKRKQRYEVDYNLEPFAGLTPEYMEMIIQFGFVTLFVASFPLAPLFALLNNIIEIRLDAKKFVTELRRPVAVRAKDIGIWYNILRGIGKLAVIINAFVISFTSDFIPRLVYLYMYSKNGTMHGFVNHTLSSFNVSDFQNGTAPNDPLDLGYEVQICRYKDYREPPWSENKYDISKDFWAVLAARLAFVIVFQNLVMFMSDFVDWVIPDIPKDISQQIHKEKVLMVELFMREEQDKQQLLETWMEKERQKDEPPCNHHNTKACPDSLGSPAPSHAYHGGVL
Assay: Automated whole-cell patch clamp (Qpatch) TMEM16A potentiator assay in FRT cells stably expressing human TMEM16A
Format: cell-based
Details: for activation at 3.33 µM: 3.33 μM test compound, percentage increase of baseline TMEM16A current at +70 mV, intracellular calcium at EC20, read-out: % Potentiation @ 3.33 μM Avg; for EC50: cumulative concentration response, 5 min per concentration, whole-cell patch clamp
Description: Automated whole-cell patch clamp assay to detect TMEM16A activity in recombinant cells Cell culture and preparation
Fisher rat thyroid (FRT) cells stably expressing human TMEM16A (TMEM16Aabc variant; Dr Luis Galietta, Insituto Giannina, Italy) were cultured in T-75 flasks in Hams F-12 media with Coon's modification (Sigma) supplemented with 10% (v/v) foetal bovine serum, penicillin-streptomycin (10,000 U/mL/10000 μg/mL), G-418 (750μg/mL), L-glutamine (2 mM) and sodium bicarbonate solution (7.5% v/v). At —90% confluence cells were harvested for experiments by detachment with a 2:1 (v/v) mixture of Detachin (BMS Biotechnology) and 0.25% (w/v) trypsin-EDTA. Cells were diluted to a density of 3.5-4.5×10^6 cells/mL with media consisting of CHO-S-SFM II (Sigma), 25 mM HEPES (Sigma) and Soy bean trypsin inhibitor (Sigma).
Whole-Cell Patch Clamp Recording
FRT-TMEM16A cells were whole-cell patch clamped using an automated planar patch clamp system (Qpatch, Sophion). Briefly, once high resistance (GOhm) seals were established between the cells and the planar recording array the patch was ruptured using suction pulses to establish the whole-cell recording configuration of the patch clamp technique. The assay employed the following solutions (all reagents Sigma):
Intracellular solution (mM): N-methyl-D-glucamine 130, CaCl2 18.2, MgCl2 1, HEPES 10, EGTA 10, BAPTA 20, Mg-ATP 2, pH 7.25, 325mOsm with sucrose.
Extracellular solution (mM): N-methyl-D-glucamine 130, CaCl2 2, MgCl2 1, HEPES 10, pH 7.3, 320 mOsm with sucrose.
The intracellular solution buffers intracellular calcium at levels required to give —20% activation of the maximal TMEM16A mediated current (EC20 for calcium ions). Cells were voltage clamped at a holding potential of -70mV and a combined voltage step (to +70 mV)/ramp (−90 my to +90 mV) was applied at 0.05 Hz. After a period of current stabilisation test compounds, solubilised in 100% (v/v) DMSO and subsequently diluted into extracellular solution, were applied to generate a cumulative concentration response curve. Each concentration of test compound was incubated for 5 minutes before addition of the next concentration. After the final concentration was tested a supramaximal concentration of either a known active positive modulator or the TMEM16A inhibitor, CaCCinhA01 (Del La Fuente et al, 2008) was added to define the upper and lower limits of the assay.
Compound activity was quantified by measuring the increase in current upon compound addition and expressing this as a percentage increase of baseline TMEM16A current level. Percentage increases in current were determined for each concentration and the data plotted as a function of concentration using either the Qpatch software or Graphpad Prism v6.05 providing the concentration which gave 50% of its maximal effect (EC50) and maximum efficacy (percentage of baseline increase).
In FIG. 1, IBL equals baseline current, km equals the peak current during test compound concentration 1 incubation period and so on.
Peak TMEM16A current at +70mV was plotted as a function of time over the assay period. Baseline current (IBL) was measured after a period of stabilisation. The increase in current for each compound addition was determined by taking the peak current during the incubation period and subtracting the current from the previous recording period and then expressing this as a percentage of the baseline current. For test compound concentration 1 in FIG. 1 this is:
For each additional concentration tested the increase in current was determined by subtracting the current from the previous incubation period and normalising the baseline value—for test concentration 2 in FIG. 1 this is:
The values for each test concentration were plotted as a cumulative function of concentration e.g. for test concentration two this would be the sum of the peak changes measured during concentration one plus concentration two.

activation at 3.33 µM | EC50 | Compound
124% | 210 nM | CC1(CNC(=O)c2ccc3[nH]c(Cc4ccccc4)nc3c2)CCCCC1 [Example 1.10.1, 2-Benzyl-N-1(1-methylcyclohexyl)methylj-1H-benzimidazole-5-carboxamide]
76.1% | 192 nM | O=C(NCC1CCCCCCC1)c1ccc2[nH]c(Cc3ccccc3)nc2c1 [Example 1.10.2, 2-Benzyl-N-(cyclooctylmethyl)-1H-benzimidazole-5-carboxamide]
215% | 860 nM | CC(C)(C)OC(=O)NCC1(CC(=O)Nc2ccc3[nH]c(Cc4ccccc4)nc3c2)CCCCC1 [Example 2.1, tert-Butyl N-[[1-[2-[(2-benzyl-1H-benzimidazol-5-yl)amino]-2-oxo-ethyl]cyclohexyl]methyl]carbamate]
47.6% | 582 nM | O=C(CC1CCC(F)(F)CC1)Nc1ccc2[nH]c(Cc3ccccc3)nc2c1 [Example 2.1.1]
197% | 622 nM | COCC(NC(=O)OC(C)(C)C)c1nc2cc(NC(=O)CC3C4CC5CC(C4)CC3C5)ccc2[nH]1 (stereo not shown) [Example 2.2, tert-Butyl N-[1-[5-[[2-(2-adamantyl)acetyl]amino]-1H-benzimidazol-2-yl]-2-methoxy-ethyl]carbamate]
97.7% | 907 nM | CN(C(=O)OC(C)(C)C)[C@H](c1ccccc1)c1nc2cc(NC(=O)CC3C4CC5CC(C4)CC3C5)ccc2[nH]1 (stereo partly shown) [Example 2.2.1]
127% | 948 nM | CN(C(=O)OC(C)(C)C)[C@@H](c1ccccc1)c1nc2cc(NC(=O)CC3C4CC5CC(C4)CC3C5)ccc2[nH]1 (stereo partly shown) [Example 2.2.2]
155% | 1040 nM | CCN(Cc1nc2ccc(NC(=O)CC3C4CC5CC(C4)CC3C5)cc2[nH]1)C(=O)OC(C)(C)C (stereo not shown) [Example 2.2.3]
190% | 1080 nM | COCCN(Cc1nc2ccc(NC(=O)CC3C4CC5CC(C4)CC3C5)cc2[nH]1)C(=O)OC(C)(C)C (stereo not shown) [Example 2.2.4]
113% | 758 nM | COCCc1nc2ccc(NC(=O)CC3C4CC5CC(C4)CC3C5)cc2[nH]1 (stereo not shown) [Example 2.2.5, 2-(2-Adamantyl)-N[2-(2-methoxyethyl)-3H-benzimidazol-5-yl]acetamide]
167% | 780 nM | COCCCc1nc2cc(NC(=O)CC3C4CC5CC(C4)CC3C5)ccc2[nH]1 (stereo not shown) [Example 2.2.6, 2-(2-Adamantyl)-N[2-(3-methoxypropyl)-1H-benzimidazol-5-yl]acetamide]
201% | 1070 nM | CN(Cc1nc2cc(NC(=O)CC3C4CC5CC(C4)CC3C5)ccc2[nH]1)C(=O)OC(C)(C)C (stereo not shown) [Example 2.3, tert-Butyl N-[[5-[[2-(2-adamanty)acetyl]amino]-1H-benzimidazol-2-yl]methyl]-N-methyl-carbamate]
133% | 658 nM | O=C(NCC1CCCCCC1)c1ccc2[nH]c(C3COc4ccccc43)nc2c1 (stereo not shown) [Example 2.4, N-(Cycloheptylmethyl)-2-(2,3-dihydrobenzofuran-3-yl)-1H-benzimidazole-5-carboxamide]
58.9% | 150 nM | O=C(CC1C2CC3CC(C2)CC1C3)Nc1ccc2[nH]c(C(O)c3ccccc3)nc2c1 (stereo not shown) [Example 2.5, 2-(2-Adamantyl)-N-12-[hydroxy(phenyl)methyl]-1H-benzimidazol-5-yljacetamide]
74% | 287 nM | O=C(CC1CCCCC1)Nc1ccc2[nH]c(-c3ccccc3)nc2c1 [Example 3.1, 2-Cyclohexyl-N-(2-phenyl-1H-benzimidazol-5-yl)acetamide]
58.5% | 332 nM | O=C(Nc1ccc2[nH]c(Cc3ccccc3)nc2c1)C12CC3CC(CC(C3)C1)C2 [Example 3.2, N-(2-Benzyl-1H-benzimidazol-5-yl)adamantane-1-carboxamide]
114% | 554 nM | O=C(NCC1CCCCCC1)c1cc(F)c2[nH]c(Cc3cccc(O)c3)nc2c1 [Example 3.3, N-(Cycloheptylmethyl)-7-fluoro-2-[(3-hydroxyphenyl)methyl]-1H-benzimidazole-5-carboxamide]
95.8% | 471 nM | O=C(NCC1CCCCCC1)c1cc2nc(Cc3cccc(O)c3)[nH]c2cc1F [Example 3.3.1, N-(Cycloheptylmethyl)-6-fluoro-2-[(3-hydroxyphenyl)methyl]-1H-benzimidazole-5-carboxamide]
90.2% | 598 nM | O=C(NCC1CCCCCC1)c1ccc2[nH]c(Cc3cccc(O)c3)nc2c1F [Example 3.3.2, N-(Cycloheptylmethyl)-4-fluoro-2-[(3-hydroxyphenyl)methyl]-1H-benzimidazole-5-carboxamide]
116% | 576 nM | Cc1noc(C)c1Cc1nc2cc(NC(=O)CC3C4CC5CC(C4)CC3C5)ccc2[nH]1 (stereo not shown) [Example 3.4.1]
99.8% | 471 nM | CC(C)(C)OC(=O)NCCc1nc2cc(NC(=O)CC3C4CC5CC(C4)CC3C5)ccc2[nH]1 (stereo not shown) [Example 3.4]
144% | 1020 nM | CC(C)(C)CNC(=O)c1ccc2[nH]c(Cc3ccccc3)nc2c1 [Example 3.5, 2-Benzyl-N-(2,2-dimethylpropyl)-1H-benzimidazole-5-carboxamide]
89.5% | 779 nM | CC(C)(C)C(C)(C)NC(=O)c1ccc2[nH]c(Cc3ccccc3)nc2c1 [Example 3.5.1, 2-Benzyl-N-(1,1,2,2-tetramethylpropyl)-1H-benzimidazole-5-carboxamide]
